Test system: monocrotaline-treated rats with pulmonary hypertension
Conditions: MCT-induced pulmonary arterial hypertension, 10 mg/kg by gavage once daily from day 14 to day 28 after MCT
Experimental: The effects of the compounds and drug combinations according to the invention are tested in vitro on isolated rat pulmonary arteries and in vivo in monocrotaline-treated rats with pulmonary hypertension.
Male Sprague Dawley rats (250-300 g) are treated with monocrotaline 60 mg/kg subcutaneously (=day 0). On day 14 after monocrotaline injection treatment the compound/combination to be tested is administered. On day 28 hemodynamic parameters, i.e. right ventricular pressure, systemic blood pressure, heart rate, arterial and venous oxygen saturation are measured and compared with untreated control animals.

CNC(=O)c1cc(Oc2ccc(NC(=O)Nc3ccc(Cl)c(C(F)(F)F)c3)cc2)ccn1.Cc1ccc(S(=O)(=O)O)cc1 [p-toluenesulfonic acid salt of 4{4-[3-(4-chloro-3-trifluoromethylphenyl)-ureido]-phenoxy}-pyridine-2-carboxylic acid methyl amide]
right ventricle/left ventricle+septum ratio (right ventricular hypertrophy) (day 28): 0.26±0.01
right ventricular systolic pressure (measured on day 28, mean±SEM): 36.50±1.50 mmHg

Reference: patent US20090176791A1, “Diaryl Ureas for Treating Pulmonary Hypertension” (BAYER HEALTHCARE AG, priority 2005, published 2009)
